Literature values as cited in patent US5169665A, “Tris-hydroxymethyl alkane esters as low calorie fat mimetics” (Nabisco, Inc., priority 1990, dated 1992).

Assays:
pancreatic lipase = settings: quoted from Minich, col. 4
[1] = rats fed ad libitum, versus control animals on a normal diet

CCCCCCCC(=O)OCC(COC(=O)CCCCCCC)(COC(=O)CCCCCCC)COC(=O)CCCCCCC [pentaerythritol tetracaprylate]
hydrolysis by pancreatic lipase (pancreatic lipase): not attacked, hydrolyzed, by the enzyme pancreatic lipase | food consumption [1]: consumed more than control animals on a normal diet
